Experimental data published in ChEMBL document CHEMBL2429858, “Five new degraded diterpenoids from Trigonostemon xyphophylloides” (Bioorg Med Chem Lett, 2013).

Tests used:
[1] = Cytotoxicity against human SPCA1 cells after 48 hrs by MTT assay; type: functional, cell-based; conditions: SPCA1, 48 h
SGC-7901 = assay: Cytotoxicity against human SGC7901 cells after 48 hrs by MTT assay; type: functional, cell-based; conditions: SGC-7901, 48 h

SMILES | IC50 [1] | IC50 (SGC-7901)
COc1c(O)c(C)cc2c1C1=CC(=O)C(C)(C)C1=CC2=O [TRIGOXYPHIN N] | 4.08 µM | 5 µM
CO[C@@]12[C@H](COC(N)=O)C3=C(C(=O)C(C)=C(N)C3=O)N1C[C@@H]1N[C@@H]12 [MITOMYCIN] | 1.68 µM | 2.05 µM
